The target in assay [1] is T1, VEGFR-2 tyrosine kinase (His6-VEGFR-2, cytoplasmic domain) (Homo sapiens, UniProt P35968).
T1 construct: made in house; host or cells: Sf9 insect cells (baculovirus, pFastBac-HT)
Briefly: Inhibitory activity on VEGFR-2 tyrosine kinase (HTRF). The format is biochemical. To be noted: biotin-poly(GT) substrate. The source says:
Cytoplasmic domain of VEGFR-2 (Genbank Accession No. L04947) is a 1.7 kb DNA fragment starting from lysine 791 and contains a stop codon, as described by Tarman et al. (Oncogene, 6(9), 1677-1683, 1991). This DNA fragment was isolated from a human placental cDNA library (obtained from Clontech Laboratories, Inc.) with two primers (obtained from TaKaRa Ex Taq™ Kit, TaKaRa) using a PCR method. This DNA fragment was cloned into a baculovirus transplace vector (pFastBac™-HT (obtained from GIBCO BRL)), to obtain a recombinant construct. An insect cell (Spodoptera frugiperda 9 (Sf9)) was transfected with it, and a VEGFR-2 recombinant baculovirus solution was prepared (preparation of the recombinant baculovirus can be found in a standard textbook (Bac-to-Bac Baculovirus Expression System (GIBCO BRL)).
To Sf9 cells (3×10^8 cells) suspended in a SF-90011 culture medium containing 2% FBS (obtained from Invitrogen Corp.), the above mentioned recombinant VEGFR-2 baculovirus solution (4 ml) was added and incubated with shaking at 27° C. for 48 hours. The recombinant VEGFR-2 baculovirus-infected cell culture was centrifuged at 4° C. at 1000 rpm for 5 minutes, and the supernatant was removed. The precipitated infected cells were suspended in 80 ml of ice-cold PBS, the suspension was centrifuged at 4° C. at 1000 rpm for 5 minutes, and the supernatant was removed. The precipitated infected cells were suspended in 40 ml of ice-cold Lysis Buffer (50 mM Tris-HCl (pH 8.5), 5 mM 2-mercaptoethanol, 100 mM KCl, 1 mM PMSF, and 1% (v/v) NP-40). This suspension was centrifuged at 4° C. at 12,000 rpm for 30 min to obtain a supernatant.
This supernatant was added to a Ni-NTA agarose column (3 ml, obtained from Qiagen) which had been equilibrated with 30 ml of Buffer A (20 mM Tris-HCl (pH 8.5), 5 mM 2-mercaptoethanol, 500 mM KCl, 20 mM imidazole, and 10% (v/v) glycerol). This column was washed sequentially with 30 ml of Buffer A, 6 ml of Buffer B (20 mM Tris-HCl (pH 8.5), 5 mM 2-mercaptoethanol, 1M KCl, and 10% (v/v) glycerol), and 6 ml of Buffer A. Then, to this column, 6 ml of Buffer C (20 mM Tris-HCl (pH 8.5), 5 mM 2-mercaptoethanol, 100 mM KCl, 100 mM imidazole, and 10% (v/v) glycerol) was added to obtain an eluate. This eluate was poured into a dialysis membrane (obtained from Spectrum Laboratories) and dialyzed with 1 liter of dialysis buffer (20 mM Tris-HCl (pH 7.5), 10% (v/v) glycerol, 1 mM DTT, 0.1 mM Na3VO4, 0.1 mM EGTA) at 4° C. overnight and stored at −80° C. until use. After the dialysis, a part of the eluate was subjected to a SDS electrophoresis, and the recombinant protein (His 6-VEGFR-2, a cytoplasmic domain of VEGFR-2 fused with 6 histidine residues on its N-terminus) detected at about 100 kDa Mw in Coomassie Brilliant Blue staining was subjected to protein quantification using BSA (obtained from Sigma Co. Ltd.) as a standard.
In each well of a 96-well round bottom plate (obtained from NUNC, product number 163320), 10 μl of a solution for kinase reaction (200 mM Hepes (pH 7.4), 80 mM MgCl2, 16 mM MnCl2, 2 mM Na3VO4), 250 ng of biotin-conjugated poly (Glu 4: Tyr 1) (biotin-poly (GT) obtained from Nihon Schering K.K.) (6 μl of 1/15 diluted solution with distilled water), 15 ng of His6-VEGFR-2 (10 μl of a 1/240 diluted solution with a 0.4% BSA solution), and a test substance solution in dimethyl sulfoxide (4 μl of 1/100 dilution with 0.1% BSA) were added to make a total volume of 30 μl. To them, 10 μl of 4 μM ATP (obtained from Sigma Co. Ltd.) diluted with distilled water was added, and the resultant was incubated for 10 minutes at 30° C., followed by addition of 10 μl of 500 mM EDTA (pH 8.0) (obtained from Wako Pure Chemical Industries, Ltd.) to obtain a kinase reaction solution.
To detect tyrosine-phosphorylated biotin-poly (GT), the Homogenous Time-Resolved Fluorescence (HTRF) method was used (Analytical Biochemistry, 269, 94-104, 1999). […]
Background: TR-FRET usually uses a lanthanide donor and a delayed reading to cut background.

The target in assay [2] is T2, KIT (Homo sapiens, UniProt P10721).
T2 construct: purchased Carna Biosciences Inc. 08-156
T2 sequence (P10721 26-976): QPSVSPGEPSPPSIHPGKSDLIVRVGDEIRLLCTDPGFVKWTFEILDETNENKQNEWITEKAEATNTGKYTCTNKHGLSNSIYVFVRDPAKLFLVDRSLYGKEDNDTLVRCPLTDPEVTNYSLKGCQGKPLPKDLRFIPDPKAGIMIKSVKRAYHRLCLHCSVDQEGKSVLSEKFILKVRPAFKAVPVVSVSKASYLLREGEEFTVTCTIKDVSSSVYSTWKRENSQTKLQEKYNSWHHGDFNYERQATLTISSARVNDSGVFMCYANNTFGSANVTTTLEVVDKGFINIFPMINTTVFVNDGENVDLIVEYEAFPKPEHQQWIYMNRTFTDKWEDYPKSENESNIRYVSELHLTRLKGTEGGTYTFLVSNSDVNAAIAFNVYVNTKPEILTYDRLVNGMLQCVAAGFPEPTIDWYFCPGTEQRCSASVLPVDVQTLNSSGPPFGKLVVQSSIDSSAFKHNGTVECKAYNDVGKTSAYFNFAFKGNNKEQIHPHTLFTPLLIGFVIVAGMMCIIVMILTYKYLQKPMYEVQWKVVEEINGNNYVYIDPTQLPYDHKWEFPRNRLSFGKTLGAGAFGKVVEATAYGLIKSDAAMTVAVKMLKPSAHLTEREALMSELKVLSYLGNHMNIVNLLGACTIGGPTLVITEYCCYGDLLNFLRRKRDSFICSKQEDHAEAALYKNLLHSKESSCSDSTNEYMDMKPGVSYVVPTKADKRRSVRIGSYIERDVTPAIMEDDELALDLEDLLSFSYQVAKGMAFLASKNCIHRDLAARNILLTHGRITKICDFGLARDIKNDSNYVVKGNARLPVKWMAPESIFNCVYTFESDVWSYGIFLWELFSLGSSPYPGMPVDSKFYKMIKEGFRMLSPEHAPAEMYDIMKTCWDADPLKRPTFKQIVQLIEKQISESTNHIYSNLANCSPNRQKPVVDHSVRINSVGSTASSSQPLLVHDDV
Kind of assay: Inhibitory action on KIT (ELISA). It is filed as biochemical. To be noted: recombinant human kinase. Here is the method: A test compound was dissolved in dimethyl sulfoxide to make a 10 mM solution, which was stored in a dark place at 4° C. until use.
Protein tyrosine kinases (recombinant human kinases) used in the study were the following products from Carna Biosciences Inc. (Kobe, Japan).
VEGFR-1 (FLT 1) (product number: 08-189) VEGFR-3 (FLT 4) (product number: 08-190) RON (product number: 08-152) RET (product number: 08-159) KIT (product number: 08-156)
Kinase activity was measured in a mobility shift assay (MSA) method (J. Biomolecular Screening, 11, 359-368, 2006) using QuickScout Screening Assist™ (Carna Biosciences Inc., commercial kit), and enzyme-linked immunoassay (ELISA).
10 μl of the test substance solution obtained by dissolving or suspending in the assay buffer (15 mM Tris, 0.01% Tween 20, 2 mM DTT, pH 7.5) (4× final concentration), or 10 μl of a solvent (4% dimethyl sulfoxide-assay buffer) was dispensed into a DELFIA Streptavidin-coated clear plate (PerkinElmer Inc., product number 4009-0010). Then, 10 μl of an ATP/substrate/metal solution of QuickScout Screening Assist™ ELISA was added. Additionally, 20 μl of the kinase solution diluted with the assay buffer was added to initiate a reaction. For a blank, only 20 μl of the assay buffer was added. The assay method was in accordance with the protocol of QuickScout Screening Assist™ ELISA. After the reaction, the absorbance at 450 nm in each well was measured using SpectraMax (Molecular Devices, California, U.S.A).
For orientation: An ELISA detects its analyte on a solid surface through an enzyme-linked reagent.

T1 sequence (P35968 786-1356 limits assumed): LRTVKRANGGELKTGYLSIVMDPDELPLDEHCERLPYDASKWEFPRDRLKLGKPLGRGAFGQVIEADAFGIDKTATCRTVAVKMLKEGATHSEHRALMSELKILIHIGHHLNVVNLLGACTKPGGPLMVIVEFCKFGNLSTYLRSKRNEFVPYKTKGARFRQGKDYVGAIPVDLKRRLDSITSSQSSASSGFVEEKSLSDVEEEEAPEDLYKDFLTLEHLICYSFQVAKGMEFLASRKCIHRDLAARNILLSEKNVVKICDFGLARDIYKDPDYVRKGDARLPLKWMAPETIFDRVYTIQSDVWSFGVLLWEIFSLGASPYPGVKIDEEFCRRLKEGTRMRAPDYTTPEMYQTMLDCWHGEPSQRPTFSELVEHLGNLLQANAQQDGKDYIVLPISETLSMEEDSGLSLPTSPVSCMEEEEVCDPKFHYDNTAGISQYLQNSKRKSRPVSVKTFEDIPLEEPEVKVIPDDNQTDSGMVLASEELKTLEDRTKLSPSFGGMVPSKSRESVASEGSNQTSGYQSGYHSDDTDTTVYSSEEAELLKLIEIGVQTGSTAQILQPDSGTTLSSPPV

What is called IC50 is the concentration at which inhibition is half-maximal. Consider `O=C(Nc1cc(Oc2cc(F)c(NC(=O)C3(C(=O)Nc4ccc(F)cc4)CC3)cc2F)ccn1)N1CC(CO)C1` [N-(2,5-Difluoro-4-{[2-({[3-(hydroxymethyl)azetidin-1-yl]carbonyl}amino)pyridin-4-yl]oxy}phenyl)-N′-(4-fluorophenyl)cyclopropane-1,1-dicarboxamide], for which the IC50 came out at 10 nM in assay [1] and 140 nM in assay [2].

On to `CN1CCN(C2CCN(C(=O)Nc3cc(Oc4cc(F)c(NC(=O)C5(C(=O)Nc6ccc(F)cc6)CC5)cc4F)ccn3)CC2)CC1` [N-(2,5-Difluoro-4-{[2-({[4-(4-methylpiperazin-1-yl)piperidin-1-yl]carbonyl}amino)pyridin-4-yl]oxy}phenyl)-N′-(4-fluorophenyl)cyclopropane-1,1-dicarboxamide], for which the IC50 in assay [1] is 100 nM; in assay [2], 350 nM.

For the molecule `CN1CCC(N(C)C(=O)Nc2cc(Oc3cc(F)c(NC(=O)C4(C(=O)Nc5ccc(F)cc5)CC4)cc3F)ccn2)CC1` [N-(2,5-Difluoro-4-{[2-({[methyl(1-methylpiperidin-4-yl)amino]carbonyl}amino)pyridin-4-yl]oxy}phenyl)-N′-(4-fluorophenyl)cyclopropane-1,1-dicarboxamide], the 50% inhibitory concentration (IC50) in assay [1] was 95 nM; in assay [2] it was 560 nM.

For the molecule `O=C(Nc1cc(Oc2ccc(NC(=O)C3(C(=O)Nc4ccc(F)cc4)CC3)c(F)c2)ccn1)N1CCC1` [N-[4-({2-[(Azetidin-1-ylcarbonyl)amino]pyridin-4-yl}oxy)-2-fluorophenyl]-N′-(4-fluorophenyl)cyclopropane-1,1-dicarboxamide], the IC50 in assay [1] turned out to be 59 nM; in assay [2], 380 nM.

Take `O=C(Nc1cc(Oc2cc(F)c(NC(=O)C3(C(=O)Nc4ccc(F)cc4)CC3)cc2F)ccn1)N1CC(O)C1` [N-{2,5-Difluoro-4-[(2-{[(3-hydroxyazetidin-1-yl)carbonyl]amino}pyridin-4-yl)oxy]phenyl}-N′-(4-fluorophenyl)cyclopropane-1,1-dicarboxamide]: the concentration for half-maximal inhibition (IC50) in assay [1] came to 9.5 nM; in assay [2], 370 nM.
